# “Also recorded” adds a separate entry of the source. Structures can show the parent of a compound that is named as a salt.
# Columns and labels:
# [1] = system: Female db/db B6BKS (D) Leprdb/J mice; assay: Fasting blood glucose in db/db mouse model of diabetes, daily oral gavage; format: in vivo; settings: for Fasting Blood Glucose (% changes from vehicle control): 6 h fast; for Blood glucose lowering compared with the equivalent dose of metformin (in words): difference not statistically significant
# Description: (§1) The anti-diabetic activity of Met.TZ was examined in a standard mouse model of diabetes, in comparison to the front-line anti-diabetes drug metformin hydrochloride. Female db/db B6BKS (D) Leprdb/J mice of approximately 6.5 to 9.5 weeks old were used for this study. This is a standard genetic model of obesity related insulin resistance and diabetes, and has served as model animal for the development and analysis of many metabolically active drugs.
# (§2) Two treatment groups of six female mice were administered Met.TZ (MetX), at dose levels of 44.7 mg/kg/dose or 149 mg/kg/dose. Two treatment groups of six female mice were administered the test sample TZ (X), at dose levels of 21.2 mg/kg/dose or 70.8 mg/kg/dose Two treatment groups of six female mice were administered the positive control article, metformin hydrochloride, at dose levels of 30 mg/kg/dose or 100 mg/kg/dose. One additional group of six mice served as the control and received the test article vehicle, water. All drugs and vehicle solutions were administered daily during the study via oral gavage at a dose volume of 5 mL/kg. Body weights were measured three times per week, at the time of glucose measurements.
# (§3) Blood samples for glucose analysis were collected three times per week beginning on Day 1 through Day 26. Animals were fasted for 6 hours prior to glucose testing. On Days 1 through 12, the test article, positive control, and vehicle were administered after completion of the glucose testing. On Days 15 through 24 the dosing occurred approximately 90 minutes prior to glucose testing. On Day 26, a glucose tolerance test (GTT) was performed. The animals were administered a glucose solution at a dose level of 2 g/kg and a dose volume of 5 mL/kg. Blood collection for glucose measurements were collected predose, and at 0.5, 1, 1.5, 2, and 3 hours following administration of the glucose solution.
# [2] = system: Female db/db B6BKS (D) Leprdb/J mice; assay: Oral glucose tolerance test (GTT) on day 26 in db/db mice; format: in vivo, mouse
# Description: as §1, §2, §3
smiles,measurement,setting,value
"CN(C)C(=N)NC(=N)N.O=C1CSC(=O)N1 [Met.TZ, Metformin thiazolidine-2,4-dione-3-ide]",Glucose lowering activity (in words),"[1]; 149 mg/kg (equivalent to metformin 100 mg/kg), from day 17 until termination of the study",striking glucose lowering activity
same,Fasting Blood Glucose (% changes from vehicle control),"[1]; day 15 of treatment, 149 mg/kg/day oral gavage",−13%
same,Fasting Blood Glucose (% changes from vehicle control),"[1]; day 17 of treatment, 149 mg/kg/day oral gavage",−51%
same,Fasting Blood Glucose (% changes from vehicle control),"[1]; day 19 of treatment, 149 mg/kg/day oral gavage",−33%
same,Fasting Blood Glucose (% changes from vehicle control),"[1]; day 22 of treatment, 149 mg/kg/day oral gavage",−52%
same,Blood glucose lowering compared with the equivalent dose of metformin (in words),[1]; db/db mice,more effective at lowering blood glucose than the equivalent dose of metformin; also recorded: lower glucose more than the equivalent dose of metformin hydrochloride alone
same,Blood glucose lowering compared with the equivalent dose of metformin (in words),"[1]; db/db mice, listed as 2,4-thiazolidinedione with metformin as its salt (1:1)",enhanced the glucose lowering effect of metformin
same,"GTT glucose curve versus control animals (Veh), significance","[2]; P<0.05 by ANOVA, means of 6 animals",significantly different than that from control animals
same,Glucose levels post glucose administration compared with the equivalent dose of metformin (in words),"[2]; every time point, 149 mg/kg/day vs metformin 100 mg/kg/day, difference not statistically significant",lower glucose levels than animals treated with the equivalent dose of metformin
same,Glucose tolerance (in words),"[2]; glucose 2 g/kg, 149 mg/kg/day",striking improvement in glucose tolerance
"CN(C)C(=N)N=C(N)N [Metformin, metformin hydrochloride]",Fasting Blood Glucose (% changes from vehicle control),"[1]; day 15 of treatment, 100 mg/kg/day oral gavage",−9%
same,Fasting Blood Glucose (% changes from vehicle control),"[1]; day 17 of treatment, 100 mg/kg/day oral gavage",−34%
same,Fasting Blood Glucose (% changes from vehicle control),"[1]; day 19 of treatment, 100 mg/kg/day oral gavage",−7%
same,Fasting Blood Glucose (% changes from vehicle control),"[1]; day 22 of treatment, 100 mg/kg/day oral gavage",−43%
"O=C1CSC(=O)N1 [TZ, 2,4-thiazolidinedione]",Fasting Blood Glucose (% changes from vehicle control),"[1]; day 15 of treatment, 70.8 mg/kg/day oral gavage",+34%
same,Fasting Blood Glucose (% changes from vehicle control),"[1]; day 17 of treatment, 70.8 mg/kg/day oral gavage",−22%
same,Fasting Blood Glucose (% changes from vehicle control),"[1]; day 19 of treatment, 70.8 mg/kg/day oral gavage",+9%
same,Fasting Blood Glucose (% changes from vehicle control),"[1]; day 22 of treatment, 70.8 mg/kg/day oral gavage",−19%
same,Hypoglycemic activity without any metformin (in words),"[1]; db/db mice, same model",little effect on glucose lowering

# Source: patent US9815777B2, “Metformin salts to treat Type2 diabetes” (Jiva Pharma, Inc., priority 2013, dated 2017)
